Experimental data reported in PubChem BioAssay AID557 (SRMLSC, 2006).
Active and inactive are the calls of the source.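 Rule for the calls: active = clearly stronger inhibition of the target kinase than of the helper enzymes tested alone in a counter assay; inactive = the rest.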

Target: not listed separately
Assay: mevalonate kinase inhibition dose curves – biochemical, PK/LDH-coupled NADH absorbance, hexokinase coupling counter-screen, dose response (AID 557)
Conditions: purified MK, PK/LDH coupled NADH absorbance 340 nm; measured here: coupling enzymes counter-screen (hexokinase)
`CN(Cc1c(O)ccc2c1oc(=O)c1ccccc12)C1CCCCC1` showed an IC50 of 8.83 µM. `CCn1nc(-c2cccs2)nc2c(=O)n(C)c(=O)nc1-2` showed an IC50 of 9.46 µM. `O=c1c2ccccc2nc2n1CCC2` gave an IC50 greater than 1360 µM.

Target: mevalonate kinase (Streptococcus pneumoniae D39)
Assay: as above
Conditions: purified MK, PK/LDH coupled NADH absorbance 340 nm
For `CCOC(=O)c1cc2sc(C)cc2n1CC(=O)N1CCN(C(=O)c2ccco2)CC1`, the outcome was “inactive”. In the case of `COc1cc(C2c3c(n[nH]c3C)C(=O)N2c2ccc(C)cc2)ccc1O` (centres undefined), the outcome is reported as “inactive”. In the case of `CCOC(=O)c1c(C)n(C)c2ccc(O)c(CN3CCC(C)CC3)c12`, the outcome is reported as “inactive”. In the case of `CC(C)OCCCNC(=O)CN1C(=O)CC(C)(C)S(=O)(=O)c2ccccc21`, the outcome is reported as “inactive”. With `CC1=NN(c2ccccc2)C(=O)C1` the outcome was “inactive”. In the case of `Cc1c(S(=O)(=O)Nc2cccc(Cl)c2)c(=O)n(C)c(=O)n1C`, the outcome is reported as “inactive”. With `CC(C)NC(=O)CSc1nnc(-c2ccc(S(=O)(=O)N3CCCC3)cc2)n1CC1CCCO1` (centres undefined) the outcome was “inactive”. For `O=c1oc2ccccc2c(O)c1CN1CCCCC1`, the outcome was “inactive”. In the case of `Cc1cc(NC(=O)c2cc(C3CC3)on2)no1`, the outcome is reported as “inactive”. With `Cc1cccc(NC(=O)c2cnc3sccn3c2=O)n1` the outcome was “inactive”. In the case of `OCCN(Cc1ccccc1)Cc1cccc(F)c1`, the outcome is reported as “inactive”. In the case of `COc1ccc(NC(=O)c2cc(-c3ccccc3OC)on2)cc1`, the outcome is reported as “inactive”. For `O=C(NCc1cn2ccccc2n1)c1ccccc1`, the outcome was “inactive”. With `CCC(=O)Nc1ccc(NC(=O)c2ccccn2)cn1` the outcome was “inactive”. In the case of `CC(C)C1Oc2ccccc2N(CC(=O)NCCCN2C(C)CCCC2C)C1=O` (centres undefined), the outcome is reported as “inactive”. For `O=C(COC(=O)Cc1ccc(S(=O)(=O)N2CCOCC2)s1)NCc1ccccc1`, the outcome was “inactive”. For `Cc1nn(-c2ccccc2)c2c1C(O)n1c(nc3ccccc31)S2` (centres undefined), the outcome was “inactive”. With `O=c1c2ccccc2nnn1CSc1nnc(-c2cccs2)n1Cc1ccccc1` the outcome was “inactive”. In the case of `O=C(c1cc(-c2ccco2)on1)N1CCCc2ccccc21`, the outcome is reported as “inactive”. In the case of `COc1ccc(Cl)cc1NC(=O)C1CCCN(S(=O)(=O)c2cccc3nonc23)C1` (centres undefined), the outcome is reported as “inactive”. For `Cc1cccc(C(=O)Nc2ccccc2C(=O)OCc2c(C)noc2C)c1`, the outcome was “inactive”. For `CN1CCN(c2nc3c(c(=O)n(C)c(=O)n3C)n2Cc2cccc3ccccc23)CC1`, the outcome was “inactive”. With `CC(=O)NC(CCS(C)(=O)=O)C(=O)Nc1c(C)cccc1C` (centres undefined) the outcome was “inactive”. In the case of `CCCCOC(=O)CSC1=C(C#N)C(c2ccccc2OC)C(C#N)C(=O)N1` (centres undefined), the outcome is reported as “inactive”. For `CCCCn1c(Cl)nc2c1c(=O)n(C)c(=O)n2C`, the outcome was “inactive”. For `Cc1cc(N2CCN(C(=O)c3ccco3)CC2)n2ncnc2n1`, the outcome was “inactive”. For `CCS(=O)(=O)NCCc1csc(C)n1`, the outcome was “inactive”. For `CCCc1[nH]nc2c1C(c1ccc(OC)c(Cn3nnc4ccccc43)c1)C(C#N)=C(N)O2` (centres undefined), the outcome was “inactive”. In the case of `CCOc1ccc(-n2c(-c3ccco3)n[nH]c2=S)cc1`, the outcome is reported as “inactive”. For `O=C(NCc1n[nH]c(=S)n1-c1ccccc1)c1ccco1`, the outcome was “inactive”. For `O=c1c(-c2ccccc2)c(O)c2cccc3c2n1CCC3`, the outcome was “inactive”. In the case of `CN(C)c1ccc(CNCCC2(O)CCOC(C)(C)C2)cc1` (centres undefined), the outcome is reported as “inactive”. For `COc1ccc2nc(NC(=O)C3CCCN(S(=O)(=O)c4cccc5nonc45)C3)sc2c1` (centres undefined), the outcome was “inactive”. With `Cc1ccc(CNC(=O)C2CCN(S(=O)(=O)c3c(C)noc3C)CC2)cc1` the outcome was “inactive”. In the case of `COc1ccccc1NS(=O)(=O)c1cccc2cccnc12`, the outcome is reported as “inactive”. Work on `CCN(CC)S(=O)(=O)c1ccc(NC2c3ncccc3C(=O)N2Cc2ccccc2)cc1` (centres undefined) yielded an IC50 of 21.9 µM. For `COc1ncnc(OC)c1NC(=O)c1ccc(F)cc1`, the outcome was “inactive”. With `CCOC(=O)C1CCN(C(=O)CN(c2ccc(OC)c(OC)c2)S(=O)(=O)c2ccccc2)CC1` the outcome was “inactive”. In the case of `Oc1ccc(-c2n[nH]c(=S)n2Cc2ccccc2)cc1`, the outcome is reported as “inactive”. For `N/C(CCN1CCOCC1)=N/O`, the outcome was “inactive”. In the case of `Cc1noc(C)c1CSc1nnc(C)c(=O)[nH]1`, the outcome is reported as “inactive”. With `COc1ccc(-n2c(=O)c3c4c(sc3n(CC(=O)NCc3ccco3)c2=O)CCC4)c(OC)c1` the outcome was “inactive”. For `Cn1c(SCCOc2cccc(Cl)c2)nnc1-c1ccncc1`, the outcome was “inactive”. For `Cc1occc1C(=O)Nc1nnc(C(F)(F)F)s1`, the outcome was “inactive”. For `CCn1c(SCC(=O)c2ccccc2)nc2c(c1=O)SC(C)C2` (centres undefined), the outcome was “inactive”. In the case of `CCn1nnc(NC(=O)c2cccc(-c3cc4ccccc4oc3=O)c2)n1`, the outcome is reported as “inactive”. In the case of `COc1cc2c(cc1OC)CN(Cc1ccc(OC)c(C)c1OC)CC2`, the outcome is reported as “inactive”. In the case of `N#Cc1ccc(-c2cccnc2)nc1SCC(=O)Nc1sc2c(c1C#N)CCC2`, the outcome is reported as “inactive”. For `COc1ccc(N(CC(=O)Nc2cc(OC)ccc2OC)S(C)(=O)=O)cc1`, the outcome was “inactive”. With `Cc1noc(C)c1C(=O)OCC(=O)/C=C1\N(C)c2ccccc2C1(C)C` the outcome was “inactive”. In the case of `O=C(c1ccc(F)cc1)N1CCC(N2CCCCCC2)CC1`, the outcome is reported as “inactive”. `O=C1C(=O)N(CCN2CCOCC2)C(c2ccncc2)/C1=C(/O)c1ccc2c(c1)OCO2` (centres undefined) showed an IC50 of 116 µM. For `COc1ccc2[nH]cc(C3N4CC5(C)CN3CC(C)(C4)C5=O)c2c1` (centres undefined), the outcome was “inactive”. With `CCOc1cc(C(=O)NCCN2CCOCC2)cc(OCC)c1OCC` the outcome was “inactive”. With `O=C1CN(C(=O)COC(=O)C2=COCCO2)c2ccccc2N1` the outcome was “inactive”. For `Cc1ccsc1C1C(C(=O)O)c2ccccc2C(=O)N1C` (centres undefined), the outcome was “inactive”. With `COc1ccc(CN2C(=O)c3cccnc3C2Nc2cc(Cl)c(OC)cc2OC)cc1` (centres undefined) the IC50 was 15.2 µM. For `O=C(NCc1nnc(SCC(=O)N2CCN(c3ccccc3)CC2)o1)c1ccco1`, the outcome was “inactive”. `COc1ccc(CN2C(=O)c3cccnc3C2Nc2cc(Cl)ccc2OC)cc1` (centres undefined) gave an IC50 of 5.71 µM. For `CN(CCC(=O)Nc1ccc2c(c1)OCO2)Cc1ccccc1`, the outcome was “inactive”. In the case of `COc1ccc(-c2nc(C#N)c(N3CCOCC3)o2)cc1OC`, the outcome is reported as “inactive”. With `CCn1c(CC(C)C)n[nH]c1=S` the outcome was “inactive”. With `CC1CCN(S(=O)(=O)c2ccc(NC(=O)CN3CCN(C)CC3)cc2)CC1` the outcome was “inactive”. For `CCOC(=O)c1[nH]c2ccccc2c1NC(=O)c1ccc(Br)o1`, the outcome was “inactive”. With `Nc1nnc(CCS(=O)(=O)c2cc(Cl)ccc2Cl)s1` the outcome was “inactive”. For `c1ccn2c(SCc3ccc4c(c3)OCO4)nnc2c1`, the outcome was “inactive”. For `COc1cccc(N2CCN(C3CC(=O)N(c4ccc(C)c(Cl)c4)C3=O)CC2)c1` (centres undefined), the outcome was “inactive”. In the case of `CCN(CC)S(=O)(=O)c1ccc(C(=O)OCC(=O)N2CCN(C(=O)c3ccco3)CC2)cc1`, the outcome is reported as “inactive”. In the case of `Cn1cccc1Cc1nnc(SCC(=O)NCc2ccc(F)cc2)n1-c1ccc(F)cc1`, the outcome is reported as “inactive”. With `N#C/C(=C(/O)COC(=O)CCc1ccc(S(=O)(=O)N2CCOCC2)cc1)c1nc2ccccc2[nH]1` the outcome was “inactive”. For `COc1ccccc1N1CCN(Cc2ccc(OC)c3ccccc23)CC1`, the outcome was “inactive”. For `COc1cc(NC(=O)c2cc(CC(C)C)on2)c(OC)cc1Cl`, the outcome was “inactive”. In the case of `Cn1cnnc1SCC(=O)n1c2ccccc2c2ccccc21`, the outcome is reported as “inactive”. With `Cc1ccsc1CN1CCN(c2ccccn2)CC1` the outcome was “inactive”. With `Cc1ccc(C(=O)COC(=O)CNC(=O)c2ccco2)cc1` the outcome was “inactive”. With `COC(=O)C1=C(C)OC(N)=C(C#N)C1c1cc(OC)c(OCC(N)=O)cc1Cl` (centres undefined) the outcome was “inactive”. For `Cc1ccc(NC2c3ncccc3C(=O)N2c2ccccc2C)cc1C` (centres undefined), the IC50 was 4.5 µM. For `COc1c(Br)cc2c(C)c(C(=O)O)oc2c1Br`, the outcome was “inactive”. In the case of `Cc1ccc2[nH]c(=O)c(CN(CCN3CCOCC3)C(=O)Nc3ccccc3F)cc2c1`, the outcome is reported as “inactive”. For `COCCCn1c(SCC(=O)NCc2ccco2)nc2sc3c(c2c1=O)CCC3`, the outcome was “inactive”. In the case of `COc1ccc(N(CC(=O)NCc2cccs2)S(=O)(=O)c2cccnc2)cc1`, the outcome is reported as “inactive”.
